Experimental data from US10519154B2, “7-substituted 1-pyridyl-naphthyridine-3-carboxylic acid amides and use thereof” (Bayer Pharma Aktiengesellschaft, priority 2016, dated 2019).

Target: T1, human M2 receptor (Homo sapiens, UniProt P08172)
T1 sequence (P08172 1-466): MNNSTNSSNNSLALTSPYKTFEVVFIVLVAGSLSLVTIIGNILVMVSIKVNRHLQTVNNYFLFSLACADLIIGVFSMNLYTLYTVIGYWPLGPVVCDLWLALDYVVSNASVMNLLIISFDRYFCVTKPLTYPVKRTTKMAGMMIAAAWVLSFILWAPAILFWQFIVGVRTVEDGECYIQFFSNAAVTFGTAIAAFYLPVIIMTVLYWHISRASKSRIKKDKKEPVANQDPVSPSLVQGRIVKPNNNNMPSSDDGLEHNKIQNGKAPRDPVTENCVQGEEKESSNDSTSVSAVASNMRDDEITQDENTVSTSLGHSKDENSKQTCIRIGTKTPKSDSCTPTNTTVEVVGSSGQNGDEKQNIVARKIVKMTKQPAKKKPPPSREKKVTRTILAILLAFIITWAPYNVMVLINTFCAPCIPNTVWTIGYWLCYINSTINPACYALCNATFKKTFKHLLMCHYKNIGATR
Experiment: Functional M2-GIRK1/4 activation test: allosteric potency (EC50) and efficiency
Conditions: for EC50: Receptor activity EC50, CHO-DUKX-M2-GIRK cells, acetylcholine at EC20, in some cases mean of two or more determinations; for Emax: read-out: Efficiency, boosting of the acetylcholine effect at EC20 acetylcholine concentration; for Emax / Efficiency: CHO-DUKX-M2-GIRK cells; for Efficiency: boosting of the acetylcholine effect at EC20 acetylcholine concentration

Structure (SMILES)	EC50	Emax	Efficiency
CC(C)(C)[C@@H](NC(=O)c1cn(-c2ncc(F)cc2F)c2nc(N3CCN(CCO)C3=O)ccc2c1=O)C(F)(F)F [Example 126, 1-(3,5-Difluoropyridin-2-yl)-7-[3-(2-hydroxyethyl)-2-oxoimidazolidin-1-yl]-4-oxo-N-[(2R)-1,1,1-trifluoro-3,3-dimethylbutan-2-yl]-1,4-dihydro-1,8-naphthyridine-3-carboxamide]	87 nM	98%	–
CC[C@@H](NC(=O)c1cn(-c2ncc(F)cc2F)c2nc(N3CC4CC4(O)C3)ccc2c1=O)C(F)(F)F (single isomer, unassigned) [Example 45]	57 nM	–	96.00%
O=C(N[C@@H](C1CC1)C(F)(F)F)c1cn(-c2ncc(F)cc2F)c2nc(N3C[C@@H](O)[C@@H](O)C3)ccc2c1=O [Example 62, N-[(1S)-1-Cyclopropyl-2,2,2-trifluoroethyl]-1-(3,5-difluoropyridin-2-yl)-7-[(3R,4S)-3,4-dihydroxypyrrolidin-1-yl]-4-oxo-1,4-dihydro-1,8-naphthyridine-3-carboxamide]	220 nM	100%	–
O=C(N[C@H](C1CC1)C(F)(F)F)c1cn(-c2ncc(F)cc2F)c2nc(N3CC4CC4(O)C3)ccc2c1=O (single isomer, unassigned) [Example 38]	18 nM	98%	–
CC(C)C[C@H](NC(=O)c1cn(-c2ncc(F)cc2F)c2nc(N3C[C@@H](O)[C@H](O)C3)ccc2c1=O)C(F)(F)F [Example 82, 1-(3,5-Difluoropyridin-2-yl)-7-[(3R,4R)-3,4-dihydroxypyrrolidin-1-yl]-4-oxo-N-[(2S)-1,1,1-trifluoro-4-methylpentan-2-yl]-1,4-dihydro-1,8-naphthyridine-3-carboxamide]	28 nM	100%	–
O=C(NC(c1cccc(Cl)c1)C(F)(F)F)c1cn(-c2ncc(F)cc2F)c2nc(N3C[C@@H](O)CC3=O)ccc2c1=O (stereo partly drawn) [Example 7, N-[1-(3-Chlorophenyl)-2,2,2-trifluoroethyl]-1-(3,5-difluoropyridin-2-yl)-7-[(4S)-4-hydroxy-2-oxopyrrolidin-1-yl]-4-oxo-1,4-dihydro-1,8-naphthyridine-3-carboxamide]	22 nM	100%	–
CCC(NC(=O)c1cn(-c2ncc(F)cc2F)c2nc(N3CCNC3=O)ccc2c1=O)C(F)(F)C(F)(F)F (racemic) [Example 164, 1-(3,5-Difluoropyridin-2-yl)-4-oxo-7-(2-oxoimidazolidin-1-yl)-N-[1,1,1,2,2-pentafluoropentan-3-yl]-1,4-dihydro-1,8-naphthyridine-3-carboxamide]	14 nM	100%	–
CC[C@@H](NC(=O)c1cn(-c2ncc(F)cc2F)c2nc(N3CCC(C)(O)C3)ccc2c1=O)C(F)(F)F (mixture of isomers) [Example 46, 1-(3,5-Difluoropyridin-2-yl)-7-[3-hydroxy-3-methylpyrrolidin-1-yl]-4-oxo-N-[(2R)-1,1,1-trifluorobutan-2-yl]-1,4-dihydro-1,8-naphthyridine-3-carboxamide]	385 nM	97%	–
O=C(N[C@H](C1CC1)C(F)(F)F)c1cn(-c2ncccc2Cl)c2nc(N3C[C@@H](O)CC3=O)ccc2c1=O [Example 22, 1-(3-Chloropyridin-2-yl)-N-[(1R)-1-cyclopropyl-2,2,2-trifluoroethyl]-7-[(4S)-4-hydroxy-2-oxopyrrolidin-1-yl]-4-oxo-1,4-dihydro-1,8-naphthyridine-3-carboxamide]	575 nM	85%	–
O=C(N[C@H](C1CC1)C(F)(F)F)c1cn(-c2ncccc2F)c2nc(N3CC4CC4(O)C3)ccc2c1=O (mixture of isomers) [Example 135, N-[(1R)-1-Cyclopropyl-2,2,2-trifluoroethyl]-1-(3-fluoropyridin-2-yl)-7-[(1S)-1-hydroxy-3-azabicyclo[3.1.0]hex-3-yl]-4-oxo-1,4-dihydro-1,8-naphthyridine-3-carboxamide]	97 nM	100%	–
CC[C@H](NC(=O)c1cn(-c2ncc(F)cc2F)c2nc(N3CCCN(CCO)C3=O)ccc2c1=O)C(F)(F)F [Example 120, 1-(3,5-Difluoropyridin-2-yl)-7-[3-(2-hydroxyethyl)-2-oxotetrahydropyrimidin-1(2H)-yl]-4-oxo-N-[(2S)-1,1,1-trifluorobutan-2-yl]-1,4-dihydro-1,8-naphthyridine-3-carboxamide]	400 nM	100%	–
CC(NC(=O)c1cn(-c2ncc(F)cc2F)c2nc(N3C[C@@H](O)[C@H](O)C3)ccc2c1=O)(C1CC1)C(F)(F)F (stereo partly drawn) [Example 153]	200 nM	100%	–
O=C(N[C@@H](C1CC1)C(F)(F)F)c1cn(-c2ncc(F)cc2F)c2nc(N3C[C@H](O)[C@@H](O)C3)ccc2c1=O [Example 61, N-[(1S)-1-Cyclopropyl-2,2,2-trifluoroethyl]-1-(3,5-difluoropyridin-2-yl)-7-[(3S,4S)-3,4-dihydroxypyrrolidin-1-yl]-4-oxo-1,4-dihydro-1,8-naphthyridine-3-carboxamide]	795 nM	100%	–
O=C(NC(c1ccccc1Cl)C(F)(F)F)c1cn(-c2ncc(F)cc2F)c2nc(N3C[C@@H](O)[C@H](O)C3)ccc2c1=O (single isomer, unassigned) [Example 85]	85 nM	–	99.00%
CCC(NC(=O)c1cn(-c2ncc(F)cc2F)c2nc(N3C[C@@H](O)CC3=O)ccc2c1=O)C(F)(F)C(F)(F)F (single isomer, unassigned) [Example 94]	32 nM	–	100.00%
O=C(N[C@@H](C1CC1)C(F)(F)F)c1cn(-c2ncc(F)cc2F)c2nc(N3C[C@@H](O)[C@H](O)C3)ccc2c1=O [Example 63, N-[(1S)-1-Cyclopropyl-2,2,2-trifluoroethyl]-1-(3,5-difluoropyridin-2-yl)-7-[(3R,4R)-3,4-dihydroxypyrrolidin-1-yl]-4-oxo-1,4-dihydro-1,8-naphthyridine-3-carboxamide]	170 nM	100%	–
CC(C)C[C@@H](NC(=O)c1cn(-c2ncc(F)cc2F)c2nc(N3C[C@@H](O)[C@H](O)C3)ccc2c1=O)C(F)(F)F [Example 81, 1-(3,5-Difluoropyridin-2-yl)-7-[(3R,4R)-3,4-dihydroxypyrrolidin-1-yl]-4-oxo-N-[(2R)-1,1,1-trifluoro-4-methylpentan-2-yl]-1,4-dihydro-1,8-naphthyridine-3-carboxamide]	15 nM	100%	–
CCC(NC(=O)c1cn(-c2ncc(F)cc2F)c2nc(N3CCNC3=O)ccc2c1=O)C(F)(F)C(F)(F)F (single isomer, unassigned) [Example 166, 1-(3,5-Difluoropyridin-2-yl)-4-oxo-7-(2-oxoimidazolidin-1-yl)-N-[1,1,1,2,2-pentafluoropentan-3-yl]-1,4-dihydro-1,8-naphthyridine-3-carboxamide]	30 nM	–	81.00%
CC[C@H](NC(=O)c1cn(-c2ncc(F)cc2F)c2nc(N3CC[C@H](F)C3)ccc2c1=O)C(F)(F)F [Example 129, 1-(3,5-Difluoropyridin-2-yl)-7-[(3S)-3-fluoropyrrolidin-1-yl]-4-oxo-N-[(2S)-1,1,1-trifluorobutan-2-yl]-1,4-dihydro-1,8-naphthyridine-3-carboxamide]	21 nM	96.5%	–
CC[C@H](NC(=O)c1cn(-c2ncc(F)cc2F)c2nc(N3CC(O)C(C)C3=O)ccc2c1=O)C(F)(F)F (single isomer, unassigned) [Example 110]	190 nM	–	94.50%
CC1C(O)C2(CC2)C(=O)N1c1ccc2c(=O)c(C(=O)N[C@@H](C3CC3)C(F)(F)F)cn(-c3ncc(F)cc3F)c2n1 (stereo partly drawn) [Example 115, N-[(1S)-1-Cyclopropyl-2,2,2-trifluoroethyl]-1-(3,5-difluoropyridin-2-yl)-7-[7-hydroxy-6-methyl-4-oxo-5-azaspiro[2.4]hept-5-yl]-4-oxo-1,4-dihydro-1,8-naphthyridine-3-carboxamide]	150 nM	89%	–
CC(C)(C)[C@H](NC(=O)c1cn(-c2ncc(F)cc2F)c2nc(N3C[C@@H](O)[C@H](O)C3)ccc2c1=O)C(F)(F)F [Example 99, 1-(3,5-Difluoropyridin-2-yl)-7-[(3R,4R)-3,4-dihydroxypyrrolidin-1-yl]-4-oxo-N-[(2S)-1,1,1-trifluoro-3,3-dimethylbutan-2-yl]-1,4-dihydro-1,8-naphthyridine-3-carboxamide]	38 nM	100%	–
O=C(NC(c1cccc(F)c1)C(F)(F)F)c1cn(-c2ncc(F)cc2F)c2nc(N3C[C@@H](O)CC3=O)ccc2c1=O (stereo partly drawn) [Example 10, 1-(3,5-Difluoropyridin-2-yl)-7-[(4S)-4-hydroxy-2-oxopyrrolidin-1-yl]-4-oxo-N-[2,2,2-trifluoro-1-(3-fluorophenyl)ethyl]-1,4-dihydro-1,8-naphthyridine-3-carboxamide]	25 nM	95.5%	–
CC[C@H](NC(=O)c1cn(-c2c(F)cncc2F)c2nc(N3C[C@@H](O)CC3=O)ccc2c1=O)C(F)(F)F [Example 24, 1-(3,5-Difluoropyridin-4-yl)-7-[(4S)-4-hydroxy-2-oxopyrrolidin-1-yl]-4-oxo-N-[(2S)-1,1,1-trifluorobutan-2-yl]-1,4-dihydro-1,8-naphthyridine-3-carboxamide]	560 nM	87%	–
